# In ChEMBL document CHEMBL2434921, “New synthetic aliphatic sulfonamido-quaternary ammonium salts as anticancer chemotherapeutic agents” (2013):
# Calls of active or inactive are those of the source. No cut-off for these calls is given here.
# Key:
# HCT-15 [1] = assay: Growth inhibition of human HCT15 cells at 1 uM after 48 hrs by SRB assay; values are per cent of control; details: HCT-15, 48 h
# HCT-15 [2] = assay: Growth of human HCT15 cells at 3 uM after 48 hrs by SRB assay; details: HCT-15, 48 h
# MDA-MB-231 [3] = assay: Growth of human MDA-MB-231 cells at 3 uM after 48 hrs by SRB assay; values are per cent of control; details: MDA-MB-231, 48 h
# NCI-H23 [4] = assay: Growth inhibition of human NCI-H23 cells at 3 uM after 48 hrs by SRB assay; values are per cent of control; details: NCI-H23, 48 h
# NUGC-3 [5] = assay: Growth inhibition of human NUGC3 cells at 10 uM after 48 hrs by SRB assay; values are per cent of control; details: NUGC-3, 48 h
# NUGC-3 [6] = assay: Growth of human NUGC3 cells at 0.3 uM after 48 hrs by SRB assay; details: NUGC-3, 48 h
# MDA-MB-231 [7] = assay: Growth of human MDA-MB-231 cells at 1 uM after 48 hrs by SRB assay; details: MDA-MB-231, 48 h
# ACHN [8] = assay: Growth of human ACHN cells at 0.3 uM after 48 hrs by SRB assay
# PC-3 [9] = assay: Growth inhibition of human PC3 cells at 1 uM after 48 hrs by SRB assay; values are per cent of control; details: PC-3, 48 h
# NCI-H23 [10] = assay: Growth of human NCI-H23 cells at 0.3 uM after 48 hrs by SRB assay; details: NCI-H23, 48 h
# PC-3 [11] = assay: Growth inhibition of human PC3 cells at 0.1 uM after 48 hrs by SRB assay; values are per cent of control; details: PC-3, 48 h
# PC-3 [12] = assay: Growth inhibition of human PC3 cells at 0.3 uM after 48 hrs by SRB assay; values are per cent of control; details: PC-3, 48 h
# HCT-15 [13] = assay: Growth of human HCT15 cells at 0.3 uM after 48 hrs by SRB assay; details: HCT-15, 48 h
# HCT-15 [14] = assay: Growth inhibition of human HCT15 cells at 10 uM after 48 hrs by SRB assay; values are per cent of control; details: HCT-15, 48 h
# [15] = target: Rho-related GTP-binding protein RhoB (Homo sapiens) (UniProt P62745); assay: Transactivation of RhoB (unknown origin) transfected in human HeLa cells at 5 uM measured over 10 secs by dual luciferase reporter gene assay; format: cell-based
# Chain of Rho-related GTP-binding protein RhoB (Homo sapiens) (P62745 whole entry): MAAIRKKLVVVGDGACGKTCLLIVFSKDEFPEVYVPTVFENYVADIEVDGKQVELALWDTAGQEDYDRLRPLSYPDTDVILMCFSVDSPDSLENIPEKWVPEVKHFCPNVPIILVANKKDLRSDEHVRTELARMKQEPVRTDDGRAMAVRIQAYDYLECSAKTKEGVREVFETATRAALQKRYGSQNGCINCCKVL
# ACHN [16] = assay: Growth inhibition of human ACHN cells at 3 uM after 48 hrs by SRB assay; values are per cent of control
# MDA-MB-231 [17] = assay: Growth of human MDA-MB-231 cells at 10 uM after 48 hrs by SRB assay; details: MDA-MB-231, 48 h
# MDA-MB-231 [18] = assay: Growth inhibition of human MDA-MB-231 cells after 48 hrs by SRB assay; format: functional; details: MDA-MB-231, 48 h
# HCT-15 [19] = assay: Growth inhibition of human HCT15 cells after 48 hrs by SRB assay; format: functional; details: HCT-15, 48 h
# PC-3 [20] = assay: Growth of human PC3 cells at 10 uM after 48 hrs by SRB assay; details: PC-3, 48 h
# NUGC-3 [21] = assay: Growth of human NUGC3 cells at 1 uM after 48 hrs by SRB assay; details: NUGC-3, 48 h
# NUGC-3 [22] = assay: Growth inhibition of human NUGC3 cells at 3 uM after 48 hrs by SRB assay; values are per cent of control; details: NUGC-3, 48 h
# HCT-15 [23] = assay: Growth inhibition of human HCT15 cells at 0.1 uM after 48 hrs by SRB assay; values are per cent of control; details: HCT-15, 48 h
# PC-3 [24] = assay: Growth inhibition of human PC3 cells at 3 uM after 48 hrs by SRB assay; values are per cent of control; details: PC-3, 48 h
# ACHN [25] = assay: Growth inhibition of human ACHN cells at 1 uM after 48 hrs by SRB assay; values are per cent of control
# NUGC-3 [26] = assay: Growth inhibition of human NUGC3 cells after 48 hrs by SRB assay; format: functional; details: NUGC-3, 48 h
# PC-3 [27] = assay: Growth inhibition of human PC3 cells after 48 hrs by SRB assay; format: functional; details: PC-3, 48 h
# NCI-H23 [28] = assay: Growth of human NCI-H23 cells at 10 uM after 48 hrs by SRB assay; details: NCI-H23, 48 h
# NUGC-3 [29] = assay: Growth of human NUGC3 cells at 0.1 uM after 48 hrs by SRB assay; details: NUGC-3, 48 h
# NCI-H23 [30] = assay: Growth inhibition of human NCI-H23 cells after 48 hrs by SRB assay; format: functional; details: NCI-H23, 48 h
# MDA-MB-231 [31] = assay: Growth inhibition of human MDA-MB-231 cells at 0.3 uM after 48 hrs by SRB assay; values are per cent of control; details: MDA-MB-231, 48 h
# NCI-H23 [32] = assay: Growth inhibition of human NCI-H23 cells at 1 uM after 48 hrs by SRB assay; values are per cent of control; details: NCI-H23, 48 h
# ACHN [33] = assay: Growth of human ACHN cells at 10 uM after 48 hrs by SRB assay
# ACHN [34] = assay: Growth of human ACHN cells at 0.1 uM after 48 hrs by SRB assay
# MDA-MB-231 [35] = assay: Growth of human MDA-MB-231 cells at 0.1 uM after 48 hrs by SRB assay; details: MDA-MB-231, 48 h
# NCI-H23 [36] = assay: Growth inhibition of human NCI-H23 cells at 0.1 uM after 48 hrs by SRB assay; values are per cent of control; details: NCI-H23, 48 h
# ACHN [37] = assay: Growth inhibition of human ACHN cells after 48 hrs by SRB assay; format: functional
SMILES,"growth, % of control at 1 µM (HCT-15 [1]) [%]","growth, % of control at 3 µM (HCT-15 [2]) [%]","growth, % of control at 3 µM (MDA-MB-231 [3]) [%]","growth, % of control at 3 µM (NCI-H23 [4]) [%]","growth, % of control at 10 µM (NUGC-3 [5]) [%]","growth, % of control at 0.3 µM (NUGC-3 [6]) [%]","growth, % of control at 1 µM (MDA-MB-231 [7]) [%]","growth, % of control at 0.3 µM (ACHN [8]) [%]","growth, % of control at 1 µM (PC-3 [9]) [%]","growth, % of control at 0.3 µM (NCI-H23 [10]) [%]","growth, % of control at 0.1 µM (PC-3 [11]) [%]","growth, % of control at 0.3 µM (PC-3 [12]) [%]","growth, % of control at 0.3 µM (HCT-15 [13]) [%]","growth, % of control at 10 µM (HCT-15 [14]) [%]",Activity [15],"growth, % of control at 3 µM (ACHN [16]) [%]","growth, % of control at 10 µM (MDA-MB-231 [17]) [%]",GI50 (MDA-MB-231 [18]) [µM],GI50 (HCT-15 [19]) [µM],"growth, % of control at 10 µM (PC-3 [20]) [%]",other results
CCCCCCCCCCCCCCCCS(=O)(=O)N(C)CCC[N+](C)(C)CC,56.5,30.5,27.3,14.8,-27.9,63.4,54.4,92.1,25,73.1,91.6,88.2,87.4,15.7,Active,35.6,0,0.69,0.78,-28.9,"growth, % of control at 1 µM (NUGC-3 [21]): 16.9%; growth, % of control at 3 µM (NUGC-3 [22]): -14.1%; growth, % of control at 0.1 µM (HCT-15 [23]): 85.4%; growth, % of control at 3 µM (PC-3 [24]): -17.9%; growth, % of control at 1 µM (ACHN [25]): 64.5%; GI50 (NUGC-3 [26]): 0.2 µM; GI50 (PC-3 [27]): 0.36 µM; growth, % of control at 10 µM (NCI-H23 [28]): -22.7%; growth, % of control at 0.1 µM (NUGC-3 [29]): 76.9%; GI50 (NCI-H23 [30]): 0.43 µM; growth, % of control at 0.3 µM (MDA-MB-231 [31]): 89.2%; growth, % of control at 1 µM (NCI-H23 [32]): 58.8%; growth, % of control at 10 µM (ACHN [33]): 1.6%; growth, % of control at 0.1 µM (ACHN [34]): 102%; growth, % of control at 0.1 µM (MDA-MB-231 [35]): 94.8%; growth, % of control at 0.1 µM (NCI-H23 [36]): 70.4%; GI50 (ACHN [37]): 0.95 µM"
CCCCCCCCCCCCCCCCS(=O)(=O)NCCC[N+](C)(C)CC,78,35.3,39.3,32.2,-34.3,73.5,75.5,90.6,56.3,82.9,84.1,79.7,91.7,16.3,Active,48.4,9.2,0.91,1.2,-32.4,"growth, % of control at 1 µM (NUGC-3 [21]): 41.8%; growth, % of control at 3 µM (NUGC-3 [22]): 7.5%; growth, % of control at 0.1 µM (HCT-15 [23]): 90%; growth, % of control at 3 µM (PC-3 [24]): -11.8%; growth, % of control at 1 µM (ACHN [25]): 76.6%; GI50 (NUGC-3 [26]): 0.32 µM; GI50 (PC-3 [27]): 0.56 µM; growth, % of control at 10 µM (NCI-H23 [28]): -21.5%; growth, % of control at 0.1 µM (NUGC-3 [29]): 74.4%; GI50 (NCI-H23 [30]): 0.91 µM; growth, % of control at 0.3 µM (MDA-MB-231 [31]): 75.7%; growth, % of control at 1 µM (NCI-H23 [32]): 73.4%; growth, % of control at 10 µM (ACHN [33]): -6.7%; growth, % of control at 0.1 µM (ACHN [34]): 87.7%; growth, % of control at 0.1 µM (MDA-MB-231 [35]): 72.6%; growth, % of control at 0.1 µM (NCI-H23 [36]): 81.3%; GI50 (ACHN [37]): 1.29 µM"
CCCCCCCCCCCCCCS(=O)(=O)N(C)CCC[N+](C)(C)CC,68.9,42.2,32.1,3,-18.3,46.3,55.2,78.5,14.6,79.8,84.9,68.3,87.8,23,Active,31.4,7.1,0.75,1.27,-31.6,"growth, % of control at 1 µM (NUGC-3 [21]): 7.9%; growth, % of control at 3 µM (NUGC-3 [22]): -12.5%; growth, % of control at 0.1 µM (HCT-15 [23]): 106%; growth, % of control at 3 µM (PC-3 [24]): -17%; growth, % of control at 1 µM (ACHN [25]): 41.7%; GI50 (NUGC-3 [26]): 0.13 µM; GI50 (PC-3 [27]): 0.22 µM; growth, % of control at 10 µM (NCI-H23 [28]): -16.9%; growth, % of control at 0.1 µM (NUGC-3 [29]): 75.5%; GI50 (NCI-H23 [30]): 0.38 µM; growth, % of control at 0.3 µM (MDA-MB-231 [31]): 91.4%; growth, % of control at 1 µM (NCI-H23 [32]): 38.4%; growth, % of control at 10 µM (ACHN [33]): 16.9%; growth, % of control at 0.1 µM (ACHN [34]): 87.9%; growth, % of control at 0.1 µM (MDA-MB-231 [35]): 95.9%; growth, % of control at 0.1 µM (NCI-H23 [36]): 96.4%; GI50 (ACHN [37]): 0.54 µM"
